Read-outs that look alike come from different tables or passages of the source.
How the values were obtained:
firefly luciferase = details: cationic surfactant; cited from earlier work
Urease = assay: Triggering of hydroxy-substituted dioxetane 2a with urease in fluorescent micelles; format: biochemical; details: 10 μL of 3×10^-3 M 2a, CTAB and 3, room temperature
Method: 5. Enzymatic Triggering of Hydroxy-Substituted Dioxetane 2a with Urease in the Prescence of Fluorescent Micelles. A solution was prepared using 160 mg of CTAB and 12.4 mg of fluorescein surfactant 3 in 200 mL of distilled water. A urea solution was made by dissolving 200 mg of urea in 100 mL of distilled water with EDTA added to give a final concentration of 0.4 mM. The substrate solution for the urease experiments was obtained by mixing 10mL of each stock solution.
Experiments were carried out with urease (Sigma) by incubation at room temperature for periods of 0.5 to 2 hours. […] The intensity of the luminescence provided a measure of the concentration of urease.

[1] = format: physicochemical
Method: Rates for thermal decomposition of the stable dioxetanes were monitored by the decay of chemiluminescence of aerated solutions. A cylindrical Pyrex vial equipped with magnetic stir bar was filled with 3-4 mL of the reaction solvent, sealed with a Teflon-lined screw cap and placed in the thermostatted sample block of the chemiluminescence-measuring luminometer. Temperature control was provided by an external circulating water bath. Appropriate values for the instrument gain and optical slit size were selected. […]. The vial was sealed with a Teflon-lined screw cap to prevent evaporation when high temperatures were used. Measurement of the signal was begun by opening the shutter. The chemiluminescent decay was generally recorded for at least three half-lives. Calculation of the first-order rate constant (k) from the In (Intensity) vs. time data was performed by a computer program utilizing a standard least-squares treatment. The correlation coefficient (r) was typically at least 0.999 and k varied less than 5% between replicate samples.
Activation parameters for decomposition of the dioxetanes were calculated from plots of In k vs. 1/T (Arrhenius eq.) or In k/t vs. 1/T (Eyring eq.) by a standard least-squares linear regression analysis.
Activation Energies for Thermal Decomposition of Dioxetanes

[2] = Base-triggered chemiluminescence of dioxetanes 2a/2b in DMSO, water, CTAB micelles and micelles with fluorescent co-surfactant
Description: The chemiluminescence quantum yield (.PHI.CL) for the decomposition of dioxetanes is defined as the ratio of einsteins of chemiluminescence emitted to moles of dioxetane decomposed. Sufficient energy is released during the reaction from the reaction enthalpy (ΔHR) plus the Arrhenius activation energy (Ea) to populate the singlet excited state of one of the carbonyl cleavage products. Therefore, the maximum quantum yield is 1.0. Another parameter of interest is the chemiexcitation quantum yield (.PHI.CE) which is defined as the ratio of excited states formed to dioxetane decomposed. The chemiexcitation quantum yield is related to the chemiluminescence quantum yield via the fluorescence quantum yield of the dioxetane cleavage (.PHI.F) through the equation: .phi.CL =.phi.CE X .phi.F.
The same procedure as those employed in the measurement of the decay kinetics was used for the determination of chemiluminescence quantum yields with the following modifications. An accurately measured aliquot of a dioxetane stock solution of known concentration was added to 3 mL of the pre-thermostatted organic solvent or aqueous buffer. The reaction was then triggered by adding the appropriate chemical reagent or enzyme. The total light intensity was integrated by a photon-counting luminometer using an RCA A-31034A gallium-arsenide PMT cooled to -78° C.
Spectra of the chemiluminescence from chemically or enzymatcally triggered dioxetanes were obtained by conducting the reaction in a 1-cm square quartz cuvette in the sample compartment of a Spex Fluorolog spectrofluorometer at ambient temperature. Correction for the decay of the chemiluminescence intensity during the wavelength scan was made by accumulating the spectrum in a ratio mode so that the observed spectrum was divided by the signal from an auxiliary detector (EMI 9781B) which measures the total signal as a function of time. The monochromator bandpass was typically 18 nm. For weakly emitting samples, several identical scans were performed and added together to improve the signal-to-noise ratio.
1. Triggering the Chemiluminescence of Hydroxy-Substituted Dioxetane 2a with Base.
2. […] Cationic surfactants such as cetyltrimethylammonium bromide (CTAB) can be used to increase rates for chemical triggering of chemiluminescence from appropriately substituted dioxetanes in aqueous solution. […] The dioxetane is solubilized in the micelles formed by the surfactant and NaOH is added to initiate the chemiluminescence. […] Typically, the experiments were carried out with [2b]=9.1×10^-5 M, [CTAB]=2×10^-3 M, and [OH^- ]=9.1×10^-5 M at 37° C.
Similar experiments were conducted with the benzothiazamide surfactant 4. […] Enzymatic Triggering of Phosphate-Substituted Dioxetane 2c.

[3] = tested on: Alkaline Phosphatase from Bovine Intestinal Mucosa; assay: Alkaline phosphatase triggering of xanthenone-derived phosphate dioxetane; format: biochemical
Method: Triggering experiments were conducted using alkaline phosphatase from bovine intestinal mucosa suspension of 5.3 mg of protein (1100 units/mg protein) per mL in 3.2 M (NH4)2 SO4 ]and the phosphate-protected dioxetane at pH 10.3 in 0.75 M 2-amino-2-methyl- 1-propanol buffer. […]. […] The rate of decay of the emission is a function of enzyme concentration while the total light emission is independent of the enzyme concentration because of turnover of the enzyme. The chemiluminescence spectrum for the phosphatase-catalyzed decomposition was obtained at room temperature in the buffer solution.

[4] = format: physicochemical; remark: listed apart in the source
[5] = Fluorescence of ester cleavage product / self-quenching of fluorescer; format: physicochemical
Description: However, the chemiluminescent decomposition of this dioxetane can be conveniently triggered at room temperature by removal of the silyl-protecting with fluoride ion to generate the unstable, aryloxide form which cleaves to yield intense blue light.
In general the molar ratio of the dioxetane to fluorescent compound is between about 1,000 to 1 and 1 to 1 whether in solution or in a solid composition.

[6] = thermal decomposition in xylene

For `CCCCCCCCCCCCCCCC[N+](C)(C)C.[Br-]` [CTAB, cetyltrimethylammonium bromide], the “inhibition of the catalytic activity of the luciferase” value (firefly luciferase) is listed as “complete inhibition”.
With `COC1(c2cccc(O)c2)OOC12C1CC3CC(C1)CC2C3` (stereo not drawn) [2a, 4-(3-Hydroxyphenyl)-4-methoxyspiro[1,2-dioxetane-3,2'-adamantane]] the “luminescence after incubation with urease” value (Urease) was “produced chemiluminescence”, the half-life ([1]; in xylene, 25° C., read-out: t1/2 at 25° C. (converted)) was 1500 days and the Ea [1, 6] was 28.3. The “Log A” value [1, 6] was 12.5, the “k(sec^-1) at 25° C.” value ([1]; thermal decomposition in xylene, 25° C.) was 5.38e-09 s⁻¹ and the “period of chemiluminescence decay” value ([2]; 10^-4 M, excess tetra-n-butylammonium hydroxide, DMSO, room temperature) was “several minutes”. The “chemiluminescence quantum yield (.PHI.CL)” value ([2]; base in DMSO) was 0.25, the “light yield (chemiluminescence quantum yield)” value ([2]; base in water) was 8.9×10^-6 and the “emission maximum for the chemiluminescence” value ([2]; tetra-n-butylammonium hydroxide in DMSO, room temperature) was 470 nm.
In the case of `O=P(O)(O)Oc1ccc2c(c1)Oc1ccccc1C21OOC12C1CC3CC(C1)CC2C3` (stereo not drawn), the “period of chemiluminescence decay” value ([3]; 4.2×10^-6 M dioxetane, 1.8 μg/mL protein, pH 10.3, 37° C.) is reported as 3 min, the “total light emission vs dioxetane concentration” value ([3]; pH 10.3, 37° C.) is reported as “linearly dependent on the dioxetane concentration” and the “background luminescence from non-enzymatic hydrolysis, of enzymatic” value ([3]; pH 10.3 buffer, over 3 min, 37° C.) is reported as 0.2%. For the same compound, the half-life ([4]; 25° C.) was 4380 days, the “spontaneous decomposition in aqueous buffers” value ([4]; aqueous buffers) was “very slow spontaneous decomposition” and the activation energy ([4]; thermal) was 30.7 kcal/mol.
With `COC(=O)c1cccc(O)c1` [methyl 3-hydroxylbenzoate] the “fluorescence quantum yield (.PHI.^F)” value ([5]; ester cleavage product under conditions of fluoride triggering) was 0.44.
In the case of `CCCCCCCCCCCCCC(=O)Nc1ccc2c(c1)C(=O)OC21c2ccc(O)cc2Oc2cc(O)ccc21` [compound 3], the “self-quenching when used alone in solution” value ([5]; no CTAB) is reported as “quenches itself when used alone in solution”.

— patent publication US4959182A, “Method and compositions providing enhanced chemiluminescence from 1,2-dioxetanes” (priority 1989, dated 1990)
